“And” between values parts separate entries of the source, which are not always exact repeats. Equal values may be shown once. Inconclusive results and toxic doses are left out. Rule as the data show it: active = T/C of 150% or more; inactive = T/C below 125%.
System: L1210 leukemia ip in BDF1 mice, survival T/C
Experiment: NCI In Vivo Anticancer Drug Screen. Data for tumor model L1210 Leukemia (intraperitoneal) in B6D2F1 (BDF1) mice
Conditions: endpoint: mean survival time, higher = longer survival
In short: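 Transplantable tumor model; survival measured in treated vs vehicle control mice. Value = treated/control.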

[1] = dose: 100.0 mg/kg/injection, schedule: Q01DX001 (ip), vehicle: saline with Tween-80
[2] = dose: 200.0 mg/kg/injection, schedule: Q01DX001 (ip), vehicle: saline with Tween-80
[3] = dose: 400.0 mg/kg/injection, schedule: Q01DX001 (ip), vehicle: saline with Tween-80
[4] = dose: 100.0 mg/kg/injection, schedule: Q01DX009 (ip), vehicle: saline with Tween-80
[5] = dose: 100.0 mg/kg/injection, schedule: Q04DX002 (ip), vehicle: saline with Tween-80
[6] = dose: 200.0 mg/kg/injection, schedule: Q04DX002 (ip), vehicle: saline with Tween-80
[7] = dose: 400.0 mg/kg/injection, schedule: Q01DX009 (ip), vehicle: saline with Tween-80
[8] = dose: 400.0 mg/kg/injection, schedule: Q04DX002 (ip), vehicle: saline with Tween-80

Measured: T/C

O=C(CCCC(=O)N/N=C/c1ccc2ccccc2n1)N/N=C\c1ccc2ccccc2n1
inactive: dose: 50.0 mg/kg/injection, schedule: Q01DX001 (ip), vehicle: other 95 % of control | dose: 100.0 mg/kg/injection, schedule: Q01DX001 (ip), vehicle: other 88 % of control | dose: 400.0 mg/kg/injection, schedule: Q01DX001 (ip), vehicle: other 95 % of control

CCCOc1cccc(N)c1
inactive: dose: 50.0 mg/kg/injection, schedule: Q01DX001 (ip), vehicle: saline 96 % of control | dose: 100.0 mg/kg/injection, schedule: Q01DX001 (ip), vehicle: saline 91 % of control | dose: 200.0 mg/kg/injection, schedule: Q01DX001 (ip), vehicle: saline 93 % of control

CCOC(=O)CCC1(CCC(=O)OCC)c2ccccc2-c2ccccc21
inactive: dose: 100.0 mg/kg/injection, schedule: Q01DX009 (ip), vehicle: Klucel (hydroxypropylcellulose) (HPC) 97 % of control | dose: 200.0 mg/kg/injection, schedule: Q01DX009 (ip), vehicle: Klucel (hydroxypropylcellulose) (HPC) 100 % of control | dose: 400.0 mg/kg/injection, schedule: Q01DX009 (ip), vehicle: Klucel (hydroxypropylcellulose) (HPC) 94 % of control

ClC1=C(Cl)C2(Cl)C3C4CCC(C4)C3C1(Cl)C2(Cl)Cl (stereo not drawn)
inactive: dose: 200.0 mg/kg/injection, schedule: Q04DX003 (ip), vehicle: saline 121 % of control | dose: 400.0 mg/kg/injection, schedule: Q04DX003 (ip), vehicle: saline 108 % of control

Oc1ccc(C2CC3CCC2C3)cc1 (stereo not drawn)
inactive: dose: 100.0 mg/kg/injection, schedule: Q04DX003 (ip), vehicle: saline + alcohol 98 % of control | dose: 200.0 mg/kg/injection, schedule: Q04DX003 (ip), vehicle: saline + alcohol 90 % of control | dose: 400.0 mg/kg/injection, schedule: Q04DX003 (ip), vehicle: saline + alcohol 96 % of control

OCCC1COc2ccccc2O1 (stereo not drawn)
inactive: dose: 100.0 mg/kg/injection, schedule: Q01DX001 (ip), vehicle: carboxymethylcellulose (CMC) 97 % of control | dose: 200.0 mg/kg/injection, schedule: Q01DX001 (ip), vehicle: carboxymethylcellulose (CMC) 95 % of control | dose: 400.0 mg/kg/injection, schedule: Q01DX001 (ip), vehicle: carboxymethylcellulose (CMC) 103 % of control

OCCCOc1ccccc1
inactive: [1] 103 % of control | [2] 97 % of control | [3] 100 % of control

COc1ccc(Cl)cc1NC(=O)Oc1ccc(C(C)=O)cc1
inactive: [1] 100 % of control | [4] 97 % of control and 104 % of control | [5] 121 % of control | dose: 100.0 mg/kg/injection, schedule: Q04DX003 (ip), vehicle: saline with Tween-80 90 % of control | [2] 100 % of control | dose: 200.0 mg/kg/injection, schedule: Q01DX009 (ip), vehicle: saline with Tween-80 96 % of control | [6] 99 % of control | dose: 200.0 mg/kg/injection, schedule: Q04DX003 (ip), vehicle: saline with Tween-80 87 % of control | [3] 93 % of control | [7] 100 % of control and 86 % of control | [8] 99 % of control | dose: 400.0 mg/kg/injection, schedule: Q04DX003 (ip), vehicle: saline with Tween-80 99 % of control

Cc1ccc(NC(=O)Oc2ccc(-c3ccccc3)cc2)cc1NC(=O)Oc1ccc(-c2ccccc2)cc1
inactive: [4] 91 % of control | [7] 96 % of control

C=C(C)C1C/C(=N\O)C(C)/C(=N/O)C1 (stereo not drawn)
inactive: [5] 100 % of control | [6] 96 % of control | [8] 93 % of control

COC1=CC(C)(C)c2ccccc2C1=O
inactive: dose: 50.0 mg/kg/injection, schedule: Q01DX009 (ip), vehicle: saline sonified 97 % of control | dose: 100.0 mg/kg/injection, schedule: Q01DX009 (ip), vehicle: saline sonified 99 % of control | dose: 100.0 mg/kg/injection, schedule: Q04DX003 (ip), vehicle: Klucel (hydroxypropylcellulose) (HPC) 97 % of control | dose: 200.0 mg/kg/injection, schedule: Q01DX009 (ip), vehicle: saline sonified 97 % of control | dose: 200.0 mg/kg/injection, schedule: Q04DX003 (ip), vehicle: Klucel (hydroxypropylcellulose) (HPC) 115 % of control | dose: 400.0 mg/kg/injection, schedule: Q04DX003 (ip), vehicle: Klucel (hydroxypropylcellulose) (HPC) 97 % of control

From PubChem BioAssay AID248 (DTP/NCI, 2004)
